From the NIST ThermoML archive (doi:10.1016/j.tca.2014.07.022)
Numbers after ± are expanded uncertainties.

Assays:
[1] = 100 kPa, Liquid; for viscosity: Concentric cylinders viscometry; for mass density: Vibrating tube method
[2] = xn = mol fraction of the nth substance listed; conditions: 100 kPa, Liquid; for viscosity: Concentric cylinders viscometry; for mass density: Vibrating tube method

Compound	viscosity ([1]; 293.15 K)	mass density ([1]; 293.15 K)	viscosity ([1]; 298.15 K)	mass density ([1]; 298.15 K)	viscosity ([1]; 303.15 K)	mass density ([1]; 303.15 K)	viscosity ([1]; 308.15 K)	mass density ([1]; 308.15 K)	viscosity ([1]; 313.15 K)	mass density ([1]; 313.15 K)	viscosity ([1]; 318.15 K)	mass density ([1]; 318.15 K)	viscosity ([1]; 323.15 K)	mass density ([1]; 323.15 K)	also measured
CC(=O)CC(C)C [4-methylpentan-2-one]	0.588 ± 0.013 mPa·s	800.8 ± 0.3 kg/m3	0.554 ± 0.013 mPa·s	796.1 ± 0.3 kg/m3	0.523 ± 0.012 mPa·s	791.6 ± 0.3 kg/m3	0.493 ± 0.011 mPa·s	786.9 ± 0.3 kg/m3	0.463 ± 0.011 mPa·s	782.3 ± 0.3 kg/m3	0.437 ± 0.01 mPa·s	777.6 ± 0.3 kg/m3	0.41 ± 0.01 mPa·s	773 ± 0.3 kg/m3	
CC(=O)CC(C)C [4-methylpentan-2-one] + CCCC(C)O															viscosity ([2]; 293.15 K, x1 = 1): 0.588 ± 0.013 mPa·s; mass density ([2]; 293.15 K, x1 = 1): 800.8 ± 0.3 kg/m3; viscosity ([2]; 298.15 K, x1 = 1): 0.554 ± 0.013 mPa·s; mass density ([2]; 298.15 K, x1 = 1): 796.1 ± 0.3 kg/m3; viscosity ([2]; 303.15 K, x1 = 1): 0.523 ± 0.012 mPa·s; mass density ([2]; 303.15 K, x1 = 1): 791.6 ± 0.3 kg/m3; viscosity ([2]; 308.15 K, x1 = 1): 0.493 ± 0.011 mPa·s; mass density ([2]; 308.15 K, x1 = 1): 786.9 ± 0.3 kg/m3; viscosity ([2]; 313.15 K, x1 = 1): 0.463 ± 0.011 mPa·s; mass density ([2]; 313.15 K, x1 = 1): 782.3 ± 0.3 kg/m3; viscosity ([2]; 318.15 K, x1 = 1): 0.437 ± 0.01 mPa·s; mass density ([2]; 318.15 K, x1 = 1): 777.6 ± 0.3 kg/m3; viscosity ([2]; 323.15 K, x1 = 1): 0.41 ± 0.01 mPa·s; mass density ([2]; 323.15 K, x1 = 1): 773 ± 0.3 kg/m3
CCC(C)O (stereo not drawn) [butan-2-ol]	3.67 ± 0.077 mPa·s	806.7 ± 0.3 kg/m3	3.04 ± 0.064 mPa·s	802.7 ± 0.3 kg/m3	2.54 ± 0.053 mPa·s	798.4 ± 0.3 kg/m3	2.128 ± 0.045 mPa·s	794.1 ± 0.3 kg/m3	1.805 ± 0.038 mPa·s	789.8 ± 0.3 kg/m3	1.538 ± 0.033 mPa·s	785.2 ± 0.3 kg/m3	1.325 ± 0.028 mPa·s	780.6 ± 0.3 kg/m3	
CCC(C)O (stereo not drawn) [butan-2-ol] + CC(=O)CC(C)C															viscosity ([2]; 293.15 K, x2 = 0): 3.67 ± 0.077 mPa·s; mass density ([2]; 293.15 K, x2 = 0): 806.7 ± 0.3 kg/m3; viscosity ([2]; 298.15 K, x2 = 0): 3.04 ± 0.064 mPa·s; mass density ([2]; 298.15 K, x2 = 0): 802.7 ± 0.3 kg/m3; viscosity ([2]; 303.15 K, x2 = 0): 2.54 ± 0.053 mPa·s; mass density ([2]; 303.15 K, x2 = 0): 798.4 ± 0.3 kg/m3; viscosity ([2]; 308.15 K, x2 = 0): 2.128 ± 0.045 mPa·s; mass density ([2]; 308.15 K, x2 = 0): 794.1 ± 0.3 kg/m3; viscosity ([2]; 313.15 K, x2 = 0): 1.805 ± 0.038 mPa·s; mass density ([2]; 313.15 K, x2 = 0): 789.8 ± 0.3 kg/m3; viscosity ([2]; 318.15 K, x2 = 0): 1.538 ± 0.033 mPa·s; mass density ([2]; 318.15 K, x2 = 0): 785.2 ± 0.3 kg/m3; viscosity ([2]; 323.15 K, x2 = 0): 1.325 ± 0.028 mPa·s; mass density ([2]; 323.15 K, x2 = 0): 780.6 ± 0.3 kg/m3
CCCC(C)O (stereo not drawn) [pentan-2-ol]	3.974 ± 0.083 mPa·s	809.3 ± 0.3 kg/m3	3.277 ± 0.069 mPa·s	805.3 ± 0.3 kg/m3	2.717 ± 0.057 mPa·s	801.2 ± 0.3 kg/m3	2.282 ± 0.048 mPa·s	797 ± 0.3 kg/m3	1.931 ± 0.041 mPa·s	792.7 ± 0.3 kg/m3	1.647 ± 0.035 mPa·s	788.4 ± 0.3 kg/m3	1.419 ± 0.03 mPa·s	784 ± 0.3 kg/m3	
CC(C)O [propan-2-ol]	2.417 ± 0.051 mPa·s	785.4 ± 0.3 kg/m3	2.083 ± 0.044 mPa·s	781.1 ± 0.3 kg/m3	1.8 ± 0.038 mPa·s	776.8 ± 0.3 kg/m3	1.561 ± 0.033 mPa·s	772.4 ± 0.3 kg/m3	1.359 ± 0.029 mPa·s	768 ± 0.3 kg/m3	1.189 ± 0.025 mPa·s	763.4 ± 0.3 kg/m3	1.047 ± 0.023 mPa·s	758.8 ± 0.3 kg/m3	
CC(C)O [propan-2-ol] + CC(=O)CC(C)C															viscosity ([2]; 293.15 K, x2 = 0): 2.417 ± 0.051 mPa·s; mass density ([2]; 293.15 K, x2 = 0): 785.4 ± 0.3 kg/m3; viscosity ([2]; 298.15 K, x2 = 0): 2.083 ± 0.044 mPa·s; mass density ([2]; 298.15 K, x2 = 0): 781.1 ± 0.3 kg/m3; viscosity ([2]; 303.15 K, x2 = 0): 1.8 ± 0.038 mPa·s; mass density ([2]; 303.15 K, x2 = 0): 776.8 ± 0.3 kg/m3; viscosity ([2]; 308.15 K, x2 = 0): 1.561 ± 0.033 mPa·s; mass density ([2]; 308.15 K, x2 = 0): 772.4 ± 0.3 kg/m3; viscosity ([2]; 313.15 K, x2 = 0): 1.359 ± 0.029 mPa·s; mass density ([2]; 313.15 K, x2 = 0): 768 ± 0.3 kg/m3; viscosity ([2]; 318.15 K, x2 = 0): 1.189 ± 0.025 mPa·s; mass density ([2]; 318.15 K, x2 = 0): 763.4 ± 0.3 kg/m3; viscosity ([2]; 323.15 K, x2 = 0): 1.047 ± 0.023 mPa·s; mass density ([2]; 323.15 K, x2 = 0): 758.8 ± 0.3 kg/m3
